This passage reports IC50 results from patent US8278304B2, “Substituted 4-hydroxypyrimidine-5-carboxamides” (Merck Sharp & Dohme Corp., priority 2008, dated 2012).

Structures can show the parent of a compound that is named as a salt.

T1 sequence (Q9GZT9 whole entry): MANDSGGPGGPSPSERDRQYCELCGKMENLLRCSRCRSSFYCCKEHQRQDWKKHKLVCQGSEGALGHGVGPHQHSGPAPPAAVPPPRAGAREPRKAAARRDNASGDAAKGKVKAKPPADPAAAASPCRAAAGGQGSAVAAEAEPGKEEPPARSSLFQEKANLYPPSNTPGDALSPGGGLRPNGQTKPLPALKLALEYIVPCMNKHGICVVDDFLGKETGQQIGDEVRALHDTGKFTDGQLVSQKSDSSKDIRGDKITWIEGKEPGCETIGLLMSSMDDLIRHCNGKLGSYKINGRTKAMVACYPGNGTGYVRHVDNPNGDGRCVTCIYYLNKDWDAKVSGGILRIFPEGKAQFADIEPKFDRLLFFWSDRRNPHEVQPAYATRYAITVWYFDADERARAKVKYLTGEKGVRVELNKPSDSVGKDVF

This assay addresses T1, PHD2 (Homo sapiens, UniProt Q9GZT9).
T1 construct: FLAG-tagged full length PHD2 expressed in and purified from baculovirus-infected Sf9 cells; FLAG; made in house; host or cells: baculovirus-infected Sf9 cells
Nature of the assay: PHD2 / HIF-1α peptide hydroxylation assay, time resolved fluorescence (VHL complex detection). The assay is classed as biochemical. The note with it: FLAG-tagged full length PHD2; 0.2 μM 2-oxoglutarate, 0.5 μM HIF-1α peptide; read-out: PHD2 Activity (PHD2 binding activity expressed as IC50 (nM)). The method, boiled down:
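Sf9-expressed FLAG-tagged full-length PHD2 (0.15 μg/ml) preincubated with compound 30 min at room temperature in Tris pH 7.4 buffer with 10 μM ferrous sulfate, 1 mM ascorbate and catalase. Reaction started with 0.2 μM 2-oxoglutarate and 0.5 μM biotinylated HIF-1α peptide (final); hydroxylation detected by time-resolved fluorescence via VHL complex binding.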
As for `COC(=O)c1ccc(CNC(=O)c2cnc(-n3cccn3)nc2O)cc1` [Example 103, methyl 4-[({[4-hydroxy-2-(1H-pyrazol-1-yl)pyrimidin-5-yl]carbonyl}amino)methyl]benzoate], the concentration for half-maximal inhibition (IC50) is 10 to 100 nM.

Consider `O=C(O)CNC(=O)c1cnc(-n2cccn2)nc1O` [Example 104, N-{[4-hydroxy-2-(1H-pyrazol-1-yl)pyrimidin-5-yl]carbonyl}glycine], for which the half-maximal inhibitory concentration (IC50) is 1000 to 10000 nM.

Turning to `O=C(NCc1ccc(-c2ccccc2)nc1)c1cnc(-n2cccn2)nc1O` [Example 105, 4-Hydroxy-N-[(6-phenylpyridin-3-yl)methyl]-2-(1H-pyrazol-1-yl)pyrimidine-5-carboxamide], the IC50 was at most 10 nM.

Turning to `O=C(NCc1ccc(-c2ccccc2F)nc1)c1cnc(-n2cccn2)nc1O` [Example 106, N-{[6-(2-fluorophenyl)pyridin-3-yl]methyl}-4-hydroxy-2-(1H-pyrazol-1-yl)pyrimidine-5-carboxamide], the 50% inhibitory concentration (IC50) was at most 10 nM.

For `O=C(NCc1ccc(-c2cccc(F)c2)nc1)c1cnc(-n2cccn2)nc1O` [Example 107, N-{[6-(3-fluorophenyl)pyridin-3-yl]methyl}-4-hydroxy-2-(1H-pyrazol-1-yl)pyrimidine-5-carboxamide trifluoroacetate (salt)], the IC50 was at most 10 nM.

For the compound `O=C(NCc1ccc(-c2ccc(F)cc2)nc1)c1cnc(-n2cccn2)nc1O` [Example 108, N-{[6-(4-fluorophenyl)pyridin-3-yl]methyl}-4-hydroxy-2-(1H-pyrazol-1-yl)pyrimidine-5-carboxamide], the IC50 was at most 10 nM.

`O=C(NCc1cnc(-c2ccc(F)cc2)cn1)c1cnc(-n2cccn2)nc1O` [Example 109, N-{[5-(4-fluorophenyl)pyrazin-2-yl]methyl}-4-hydroxy-2-(1H-pyrazol-1-yl)pyrimidine-5-carboxamide]: the IC50 lay in the range of 10 to 100 nM.

In the case of `N#Cc1ccc(CNC(=O)c2cnc(-n3cccn3)nc2O)cn1` [Example 110, N-[(6-cyanopyridin-3-yl)methyl]-4-hydroxy-2-(1H-pyrazol-1-yl)pyrimidine-5-carboxamide], the half-maximal inhibitory concentration (IC50) is 10 to 100 nM.

Consider `COc1ccc(C(NC(=O)c2cnc(-c3cccnn3)nc2O)c2ccc(C#N)nc2)cc1` (stereo not shown) [Example 112, N-[(6-cyanopyridin-3-yl)(4-methoxyphenyl)methyl]-4-hydroxy-2-pyridazin-3-ylpyrimidine-5-carboxamide], for which the IC50 is at most 10 nM.

Take `C[C@H](NC(=O)c1cnc(-n2cccn2)nc1O)c1ccc(C#N)cc1` [Example 113, N-[(1S)-1-(4-cyanophenyl)ethyl]-4-hydroxy-2-(1H-pyrazol-1-yl)pyrimidine-5-carboxamide]: the IC50 was at most 10 nM.

On to `COc1ccc(C(NC(=O)c2cnc(-c3cccnn3)nc2O)c2ccc(C)nc2)cc1` (stereo not shown) [Example 114, 4-Hydroxy-N-[(4-methoxyphenyl)(6-methylpyridin-3-yl)methyl]-2-pyridazin-3-ylpyrimidine-5-carboxamide], for which the IC50 is at most 10 nM.

Turning to `COc1ccc(C(NC(=O)c2cnc(-c3cccnn3)nc2O)c2cccc(C)n2)c(OC)c1` (stereo not shown) [Example 115, N-[(2,4-Dimethoxyphenyl)(6-methylpyridin-2-yl)methyl]-4-hydroxy-2-pyridazin-3-ylpyrimidine-5-carboxamide], the IC50 is at most 10 nM.

As to `Cc1csc(C(C)NC(=O)c2cnc(-n3cccn3)nc2O)n1` (stereo not shown) [Example 117, 4-hydroxy-N-[1-(4-methyl-1,3-thiazol-2-yl)ethyl]-2-(1H-pyrazol-1-yl)pyrimidine-5-carboxamide hydrochloride], the half-inhibitory concentration (IC50) is at most 10 nM.

`CC(NC(=O)c1cnc(-n2cccn2)nc1O)c1ccccn1` (stereo not shown) [Example 118, 4-hydroxy-2-(1H-pyrazol-1-yl)-N-[1-(pyridin-2-yl)ethyl]pyrimidine-5-carboxamide]: the IC50 lay within 10 to 100 nM.

Regarding `O=C(N[C@H]1CCc2ccccc21)c1cnc(-n2cccn2)nc1O` [Example 119, N-[(1S)-2,3-dihydro-1H-inden-1-yl]-4-hydroxy-2-(1H-pyrazol-1-yl)pyrimidine-5-carboxamide], the concentration for half-maximal inhibition (IC50) was 10 to 100 nM.

For the compound `O=C(N[C@H](c1ccccc1)[C@@H](O)c1ccccc1)c1cnc(-n2cccn2)nc1O` [Example 120, 4-hydroxy-N-[(1R,2S)-2-hydroxy-1,2-diphenylethyl]-2-(1H-pyrazol-1-yl)pyrimidine-5-carboxamide], the IC50 is at most 10 nM.

For `C[C@H](NC(=O)c1cnc(-n2cccn2)nc1O)c1ccc2ccccc2c1` [Example 121, 4-hydroxy-N-[(1S)-1-(naphthalen-2-yl)ethyl]-2-(1H-pyrazol-1-yl)pyrimidine-5-carboxamide], the IC50 was at most 10 nM.

Consider `O=C(N[C@H](CO)c1ccccc1)c1cnc(-n2cccn2)nc1O` [Example 122, 4-hydroxy-N-[(1S)-2-hydroxy-1-phenylethyl]-2-(1H-pyrazol-1-yl)pyrimidine-5-carboxamide], for which the half-maximal inhibitory concentration (IC50) fell in the range of 10 to 100 nM.

As to `O=C(N[C@@H](CO)c1ccccc1)c1cnc(-n2cccn2)nc1O` [Example 123, 4-hydroxy-N-[(1R)-2-hydroxy-1-phenylethyl]-2-(1H-pyrazol-1-yl)pyrimidine-5-carboxamide], the IC50 was at most 10 nM.

Consider `O=C(N[C@@H](C(=O)O)c1ccccc1)c1cnc(-n2cccn2)nc1O` [Example 124, (2R)-({[4-hydroxy-2-(1H-pyrazol-1-yl)pyrimidin-5-yl]carbonyl}amino)(phenyl)ethanoic acid], for which the 50% inhibitory concentration (IC50) was at most 10 nM.

As to `O=C(NC(c1ccccc1)c1ccccn1)c1cnc(-n2cccn2)nc1O` (stereo not shown) [Example 125, 4-hydroxy-N-[phenyl(pyridin-2-yl)methyl]-2-(1H-pyrazol-1-yl)pyrimidine-5-carboxamide trifluoroacetate (salt)], the 50% inhibitory concentration (IC50) is at most 10 nM.

Take `COc1cccc([C@H](C)NC(=O)c2cnc(-n3cccn3)nc2O)c1` [Example 126, 4-hydroxy-N-[(1S)-1-(3-methoxyphenyl)ethyl]-2-(1H-pyrazol-1-yl)pyrimidine-5-carboxamide]: the IC50 is at most 10 nM.

Regarding `O=C(N[C@H](c1ccccc1)[C@H](O)c1ccccc1)c1cnc(-n2cccn2)nc1O` [Example 127, 4-hydroxy-N-[(1R,2R)-2-hydroxy-1,2-diphenylethyl]-2-(1H-pyrazol-1-yl)pyrimidine-5-carboxamide], the IC50 was at most 10 nM.

Take `CC(C)(O)[C@H](NC(=O)c1cnc(-n2cccn2)nc1O)c1ccccc1` [Example 128, 4-hydroxy-N-[(1R)-2-hydroxy-2-methyl-1-phenylpropyl]-2-(1H-pyrazol-1-yl)pyrimidine-5-carboxamide]: the IC50 was at most 10 nM.

As to `C[C@H](NC(=O)c1cnc(-n2cccn2)nc1O)c1ccc(Oc2ccccc2)cc1` [Example 129, 4-hydroxy-N-[(1S)-1-(4-phenoxyphenyl)ethyl]-2-(1H-pyrazol-1-yl)pyrimidine-5-carboxamide], the half-maximal inhibitory concentration (IC50) is at most 10 nM.

With `O=C(NCc1ccc(C(F)(F)F)cn1)c1cnc(-n2cccn2)nc1O` [Example 130, 4-hydroxy-2-(1H-pyrazol-1-yl)-N-{[5-(trifluoromethyl)pyridin-2-yl]methyl}pyrimidine-5-carboxamide], the IC50 lay within 10 to 100 nM.

With `CC(C)C(NC(=O)c1cnc(-n2cccn2)nc1O)c1ccccc1` (stereo not shown) [Example 131, 4-hydroxy-N-(2-methyl-1-phenylpropyl)-2-(1H-pyrazol-1-yl)pyrimidine-5-carboxamide], the IC50 was at most 10 nM.

On to `C[C@H](NC(=O)c1cnc(-n2cccn2)nc1O)c1ccc2c(c1)OCCO2` [Example 132, N-[(1S)-1-(2,3-dihydro-1,4-benzodioxin-6-yl)ethyl]-4-hydroxy-2-(1H-pyrazol-1-yl)pyrimidine-5-carboxamide], for which the IC50 was at most 10 nM.

`CC[C@H](NC(=O)c1cnc(-n2cc(C)cn2)nc1O)c1ccccc1` [Example 133, 4-hydroxy-2-(4-methyl-1H-pyrazol-1-yl)-N-[(1S)-1-phenylpropyl]pyrimidine-5-carboxamide]: the IC50 was at most 10 nM.

Consider `COc1ccc([C@H](C)NC(=O)c2cnc(-n3cc(C)cn3)nc2O)cc1` [Example 134, 4-hydroxy-N-[(1S)-1-(4-methoxyphenyl)ethyl]-2-(4-methyl-1H-pyrazol-1-yl)pyrimidine-5-carboxamide], for which the IC50 is at most 10 nM.

Turning to `O=C(NC1CCCCC1)c1cnc(-c2cccnn2)nc1O` [Example 135, N-cyclohexyl-4-hydroxy-2-(pyridazin-3-yl)pyrimidine-5-carboxamide], the half-maximal inhibitory concentration (IC50) was in the range of 10 to 100 nM.

For `O=C(NC(c1ccccc1)c1ccccn1)c1cnc(-c2cccnn2)nc1O` (stereo not shown) [Example 136, 4-hydroxy-N-[phenyl(pyridin-2-yl)methyl]-2-pyridazin-3-ylpyrimidine-5-carboxamide trifluoroacetate (salt)], the IC50 was at most 10 nM.

Turning to `C[C@H](NC(=O)c1cnc(-c2cccnn2)nc1O)c1ccc(Oc2ccccc2)cc1` [Example 137, 4-hydroxy-N-[(1S)-1-(4-phenoxyphenyl)ethyl]-2-(pyridazin-3-yl)pyrimidine-5-carboxamide], the IC50 was at most 10 nM.

Take `O=C(N[C@H](c1ccccc1)[C@@H](O)c1ccccc1)c1cnc(-c2cccnn2)nc1O` [Example 138]: the half-inhibitory concentration (IC50) is at most 10 nM.

In the case of `O=C(N[C@H](c1ccccc1)[C@H](O)c1ccccc1)c1cnc(-c2cccnn2)nc1O` [Example 139, 4-hydroxy-N-[(1R,2R)-2-hydroxy-1,2-diphenylethyl]-2-(pyridazin-3-yl)pyrimidine-5-carboxamide], the concentration for half-maximal inhibition (IC50) is at most 10 nM.

For the compound `C[C@H](NC(=O)c1cnc(-c2cccnn2)nc1O)c1ccc2c(c1)OCCO2` [Example 140, N-[(1S)-1-(2,3-dihydro-1,4-benzodioxin-6-yl)ethyl]-4-hydroxy-2-(pyridazin-3-yl)pyrimidine-5-carboxamide], the IC50 is at most 10 nM.

Consider `CCCC(NC(=O)c1cnc(-n2cccn2)nc1O)c1ccc(-c2ccccc2)cc1` (stereo not shown) [Example 165, N-[1-(biphenyl-4-yl)butyl]-4-hydroxy-2-(1H-pyrazol-1-yl)pyrimidine-5-carboxamide], for which the IC50 is at most 10 nM.
